# In article PMC6001238, “Iterative Chemical Engineering of Vancomycin Leads to Novel Vancomycin Analogs With a High in Vitro Therapeutic Index” (Frontiers in Microbiology, 2018):
# Like-named read-outs stand apart in the source and are kept apart here.
# Experiments:
# E. faecalis VSE 1 = experiment: MIC, broth microdilution, vancomycin-sensitive E. faecalis (VSE 1); format: cell-based, Enterococcus faecalis
# Outline: (§1)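 CLSI broth microdilution; water and uninoculated-broth controls; one arm supplemented with vancomycin, final 10 μM, given with analogue or control antibiotic.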
# E. faecalis VRE 6 = experiment: MIC, broth microdilution, vancomycin-resistant E. faecalis VRE 6 (VanA); format: cell-based, Enterococcus faecalis
# Outline: as §1
# E. faecalis VRE 53 = experiment: MIC, broth microdilution, vancomycin-resistant E. faecalis VRE 53 (VanA); format: cell-based, Enterococcus faecalis
# Outline: as §1
# E. faecalis VRE 29 = experiment: MIC, broth microdilution, vancomycin-resistant E. faecalis VRE 29 (VanA); format: cell-based, Enterococcus faecalis
# Outline: as §1
# E. faecalis VRE 37 = experiment: MIC, broth microdilution, vancomycin-resistant E. faecalis VRE 37 (VanA); format: cell-based, Enterococcus faecalis
# Outline: as §1
# [1] = system: Murine leukemia (L1210) cells; experiment: Cytostatic activity, L1210 cell proliferation; format: cell-based; conditions: mean ± SD of three experiments; highest concentration tested 250 µM; 2 days; read-out: Toxicity (IC50) L1210
# Outline: (§2)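 Coulter counter cell counts after 37°C culture with compound; IC50 = concentration giving 50% growth inhibition vs negative control. Incubation: L1210 2 d, CEM 3 d, HeLa 4 d. Suspension density before mixing with an equal volume of dilution: 300,000–500,000 cells/mL.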
# [2] = system: human T-lymphocyte (CEM) cells; experiment: Cytostatic activity, CEM cell proliferation; format: cell-based; conditions: mean ± SD of three experiments; highest concentration tested 250 µM; 3 days; read-out: Toxicity (IC50) CEM
# Outline: as §2
# [3] = system: human cervix carcinoma (HeLa) cells; experiment: Cytostatic activity, HeLa cell proliferation; format: cell-based; conditions: mean ± SD of three experiments; highest concentration tested 250 µM; 4 days; read-out: Toxicity (IC50) HeLa
# Outline: as §2
# [4] = system: L1210, CEM and HeLa cell lines; experiment: Cytostatic activity, average or summary over L1210, CEM and HeLa; format: cell-based
# Outline: as §2
# [5] = system: S. aureus VSSA (ATCC 6538); experiment: MIC, broth microdilution, vancomycin-sensitive S. aureus (VSSA/MSSA, ATCC 6538); format: cell-based, Staphylococcus aureus
# Outline: as §1
# S. aureus VISA/HIP5827 = experiment: MIC, broth microdilution, vancomycin-intermediate S. aureus VISA HIP5827; format: cell-based, Staphylococcus aureus
# Outline: as §1
# S. aureus VRSA = experiment: MIC, broth microdilution, vancomycin-resistant S. aureus (VRSA); format: cell-based, Staphylococcus aureus
# Outline: as §1
# MRSA KS2 = experiment: MIC, broth microdilution, MRSA KS2; format: cell-based, Staphylococcus aureus
# Outline: as §1
# MRSA KS6 = experiment: MIC, broth microdilution, MRSA KS6; format: cell-based, Staphylococcus aureus
# Outline: as §1
# MRSA KS89 = experiment: MIC, broth microdilution, MRSA KS89; format: cell-based, Staphylococcus aureus
# Outline: as §1
# MRSA KS1 = experiment: MIC, broth microdilution, MRSA KS1; format: cell-based, Staphylococcus aureus
# Outline: as §1
# 33 clinical VRE isolates = experiment: MIC against a set of 33 clinical VRE isolates (range, MIC50, TI); format: cell-based, Enterococcus faecalis
# Outline: as §1
# [6] = system: 24 clinical MRSA isolates; experiment: MIC against a set of 24 clinical MRSA isolates (range, MIC50, TI); format: cell-based, Staphylococcus aureus
# Outline: as §1
# [7] = system: Clostridium difficile ATJ ribotype 014/20; experiment: MIC, plate drop assay, C. difficile ATJ ribotype 014/20; format: cell-based; conditions: C. difficile ATJ ribotype 014/20
# Outline: (§3)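 Lawns of each strain were made in soft BHI agar (0.4%) supplemented with CaCl2⋅2H2O and MgCl2⋅6H2O. Twofold compound dilutions (10 μL) were spotted, air-dried and incubated overnight at 37°C anaerobically; MIC read as cleared spots, in triplicate with water as negative control.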
# [8] = system: Clostridium difficile AIU ribotype 027; experiment: MIC, plate drop assay, C. difficile AIU ribotype 027; format: cell-based; conditions: for MIC-fold improvement vs. vancomycin: C. difficile AIU ribotype 027
# Outline: as §3
# VE 148 (VanB) = experiment: MIC, VanB-type VRE strain VE 148; format: cell-based, Enterococcus; conditions: VE 148, VanB; read-out: MIC
# Outline: as §1
# VE 149 (VanB) = experiment: MIC, VanB-type VRE strain VE 149; format: cell-based, Enterococcus; conditions: VE 149, VanB; read-out: MIC
# Outline: as §1
# VE 150 (VanB) = experiment: MIC, VanB-type VRE strain VE 150; format: cell-based, Enterococcus; conditions: VE 150, VanB; read-out: MIC
# Outline: as §1
# VE 152 (VanB) = experiment: MIC, VanB-type VRE strain VE 152; format: cell-based, Enterococcus; conditions: VE 152, VanB; read-out: MIC
# Outline: as §1
# VE 157 (VanB) = experiment: MIC, VanB-type VRE strain VE 157; format: cell-based, Enterococcus; conditions: VE 157, VanB; read-out: MIC
# Outline: as §1
# VE 82 (VanC1) = experiment: MIC, VanC1-type VRE strain VE 82; format: cell-based, Enterococcus gallinarum; conditions: VE 82, VanC1; read-out: MIC
# Outline: as §1
# MRSA = experiment: Minimum bactericidal concentration against MRSA; format: cell-based, Staphylococcus aureus
# Protocol: Plates were incubated overnight at 37°C and colony growth was inspected.
smiles,measurement,setting,value
CN[C@H](CC(C)C)C(=O)N[C@H]1C(=O)N[C@@H](CC(N)=O)C(=O)N[C@H]2C(=O)N[C@H]3C(=O)N[C@H](C(=O)N[C@H](C(=O)NCC(=O)Nc4ccc5c(c4)Cc4ccccc4-5)c4cc(O)cc(O)c4-c4cc3ccc4O)[C@H](O)c3ccc(c(Cl)c3)Oc3cc2cc(c3O[C@@H]2O[C@H](CO)[C@@H](O)[C@H](O)[C@H]2O[C@H]2C[C@](C)(N)[C@H](O)[C@H](C)O2)Oc2ccc(cc2Cl)[C@H]1O [Vanc-42],MIC,"E. faecalis VSE 1; Enterococcus faecalis VSE 1 (vancomycin-sensitive), read-out: MIC",0.20 µM
same,MIC-fold improvement vs. vancomycin,"E. faecalis VSE 1; VSE 1, ratio of MIC of vancomycin and MIC of analogue",8
same,MIC,"E. faecalis VRE 6; Enterococcus faecalis VRE 6 (vancomycin-resistant), read-out: MIC",0.78 µM
same,MIC-fold improvement vs. vancomycin,"E. faecalis VRE 6; VRE 6, ratio of MIC of vancomycin and MIC of analogue",256
same,MIC,"E. faecalis VRE 53; Enterococcus faecalis VRE 53 (vancomycin-resistant), read-out: MIC",12.5 µM
same,MIC-fold improvement vs. vancomycin,"E. faecalis VRE 53; VRE 53, ratio of MIC of vancomycin and MIC of analogue",32
same,MIC,"E. faecalis VRE 29; Enterococcus faecalis VRE 29 (vancomycin-resistant), read-out: MIC",1.56 µM
same,MIC-fold improvement vs. vancomycin,"E. faecalis VRE 29; VRE 29, ratio of MIC of vancomycin and MIC of analogue",256
same,MIC,"E. faecalis VRE 37; Enterococcus faecalis VRE 37 (vancomycin-resistant), read-out: MIC",3.13 µM
same,MIC-fold improvement vs. vancomycin,"E. faecalis VRE 37; VRE 37, ratio of MIC of vancomycin and MIC of analogue",128
same,IC50,[1],177 ± 103 µM
same,IC50,[2],92 ± 3 µM
same,IC50,[3],> 250 µM
same,IC50,"[4]; average IC50 used for TI in Table S5, >250 entered as 250, read-out: IC50",173 µM
same,IC50,"[4]; average of L1210, CEM and HeLa, read-out: Toxicity (IC50) Average",173 µM
same,MIC,"[5]; Staphylococcus aureus VSSA, read-out: MIC",0.78 µM
same,MIC-fold improvement vs. vancomycin,"[5]; VSSA, ratio of MIC of vancomycin and MIC of analogue",1
same,MIC,"S. aureus VISA/HIP5827; Staphylococcus aureus VISA/HIP5827, read-out: MIC",0.78 µM
same,MIC-fold improvement vs. vancomycin,"S. aureus VISA/HIP5827; VISA/HIP5827, ratio of MIC of vancomycin and MIC of analogue",8
same,MIC,"S. aureus VRSA; Staphylococcus aureus VRSA, read-out: MIC",1.56 µM
same,MIC-fold improvement vs. vancomycin,"S. aureus VRSA; VRSA, ratio of MIC of vancomycin and MIC of analogue",64
same,MIC-fold improvement vs. vancomycin,"MRSA KS2; MRSA KS2, ratio of MIC of vancomycin and MIC of analogue",4
same,MIC,"MRSA KS2; Staphylococcus aureus MRSA KS2, read-out: MIC",0.20 µM
same,MIC-fold improvement vs. vancomycin,"MRSA KS6; MRSA KS6, ratio of MIC of vancomycin and MIC of analogue",4
same,MIC,"MRSA KS6; Staphylococcus aureus MRSA KS6, read-out: MIC",0.20 µM
same,MIC-fold improvement vs. vancomycin,"MRSA KS89; MRSA KS8, ratio of MIC of vancomycin and MIC of analogue",4
same,MIC,"MRSA KS89; Staphylococcus aureus MRSA KS8, read-out: MIC",0.20 µM
same,MIC-fold improvement vs. vancomycin,"MRSA KS1; MRSA KS1, ratio of MIC of vancomycin and MIC of analogue",2
same,MIC,"MRSA KS1; Staphylococcus aureus MRSA KS1, read-out: MIC",0.39 µM
same,MIC Range,33 clinical VRE isolates; 33 clinical VRE isolates,0.39 to 6.25 µM
same,TI (IC50/MIC50),"33 clinical VRE isolates; in vitro therapeutic index, VRE",111
same,MIC50,"33 clinical VRE isolates; median MIC, 33 clinical VRE isolates, read-out: MIC50",1.56 µM
same,MIC Range,[6]; 24 clinical MRSA isolates,0.10 to 0.39 µM
same,TI (IC50/MIC50),"[6]; in vitro therapeutic index, MRSA",865
same,MIC50,"[6]; median MIC, 24 clinical MRSA isolates, read-out: MIC50",0.20 µM
same,MIC-fold improvement vs. vancomycin,[7],up to 45
same,MIC-fold improvement vs. vancomycin,[7]; listed as Vanc- 42,22
same,MIC-fold improvement vs. vancomycin,[8],≤ 58
same,MIC,"[8]; C. difficile AIU ribotype 027, plate drop assay",0.78 µM
same,MIC-fold improvement vs. vancomycin,[8]; listed as Vanc- 42,58
same,MIC,VE 148 (VanB),3.13 µM
same,MIC,VE 149 (VanB),3.13 µM
same,MIC,VE 150 (VanB),3.13 µM
same,MIC,VE 152 (VanB),3.13 µM
same,MIC,VE 157 (VanB),3.13 µM
same,MIC,VE 82 (VanC1),1.56 µM
same,MBC relative to MIC,MRSA,MBC equaling their MIC values
